From patent US20180320217A1, “METHODS FOR SAMPLING AND MEASURING ORAL LAVAGE PROTEINS” (The Procter & Gamble Company, priority 2017, published 2018)
Structures can show the parent of a compound that is named as a salt.

What was measured:
diaphorase [1] = experiment: Effect of concentrations of tetrazolium salts on formation of formazan dyes (FIGS. 4A-4G); assay type: biochemical; conditions: 15 mM NADH+H, 20 μg diaphorase, pH 7.5; FIGS. 4A to 4G
Method: On the idea that higher concentrations of tetrazolium salts in the assay buffer would likely result in more formazan dyes in the reaction, various concentrations of tetrazolium salts were added to a reaction buffer and the formation of formazan dyes were measured at 0, 30 and 60 minutes. […] The reactions were performed at room temperature. Absorbance was taken at 0, 30 and 60 minutes.

diaphorase [2] = experiment: Formation of formazan dyes: NADH and diaphorase, absence of malate (TABLE 7); assay type: biochemical, Clostridium kluyveri; conditions: NADH and diaphorase, absence of malate
oral lavage [3] = experiment: Formation of formazan dyes: oral lavage, malate and diaphorase (TABLE 12); assay type: biochemical, human; conditions: oral lavage, malate and diaphorase
oral lavage [4] = experiment: Formation of formazan dyes: oral lavage, malate and 1-Methoxy PMS (TABLE 20); assay type: biochemical, human; conditions: oral lavage, malate and 1-Methoxy PMS, mean of three experiments
oral lavage [5] = experiment: Formation of formazan dyes: oral lavage and 1-Methoxy PMS, absence of malate (TABLE 19); assay type: biochemical, human; conditions: oral lavage and 1-Methoxy PMS, absence of malate, mean of three experiments

## Cc1nc(-[n+]2nc(-c3cccc(OCC(=O)O)c3)nn2-c2ccc(S(=O)(=O)[O-])cc2)sc1C [MTS, 3-(4,5-dimethylthiazol-2-yl)-5-(3-carboxymethoxyphenyl)-2-(4-sulfophenyl)-2H-tetrazolium, inner salt]
Diaphorase [1]
  concentration of tetrazolium salt at which absorbance reached peaks: around 1.5 mM
Diaphorase [2]; 0 h
  Formation of formazan dyes, absorbance, Means 0 h: 3.21
Diaphorase [2]; 1 h
  Formation of formazan dyes, absorbance, Means 1 h: 3.24
Diaphorase [2]; 2 h
  Formation of formazan dyes, absorbance, Means 2 h: 3.22
Diaphorase [2]; 3 h
  Formation of formazan dyes, absorbance, Means 3 h: 3.20
Diaphorase [2]; 4 h
  Formation of formazan dyes, absorbance, Means 4 h: 3.27
Diaphorase [2]; 6 h
  Formation of formazan dyes, absorbance, Means 6 h: 3.29
Diaphorase [2]; 8 h
  Formation of formazan dyes, absorbance, Means 8 h: 3.28
Diaphorase [2]; 10 h
  Formation of formazan dyes, absorbance, Means 10 h: 3.28
Diaphorase [2]; 12 h
  Formation of formazan dyes, absorbance, Means 12 h: 3.28
Oral lavage [3]; 0 h
  Formation of formazan dyes, absorbance, Means 0 h: 0.68
Oral lavage [3]; 1 h
  Formation of formazan dyes, absorbance, Means 1 h: 0.93
Oral lavage [3]; 2 h
  Formation of formazan dyes, absorbance, Means 2 h: 1.07
Oral lavage [3]; 3 h
  Formation of formazan dyes, absorbance, Means 3 h: 1.14
Oral lavage [3]; 4 h
  Formation of formazan dyes, absorbance, Means 4 h: 1.34
Oral lavage [3]; 6 h
  Formation of formazan dyes, absorbance, Means 6 h: 1.56
Oral lavage [3]; 8 h
  Formation of formazan dyes, absorbance, Means 8 h: 1.84
Oral lavage [3]; 10 h
  Formation of formazan dyes, absorbance, Means 10 h: 2.10
Oral lavage [3]; 12 h
  Formation of formazan dyes, absorbance, Means 12 h: 2.27
Oral lavage [4]; 0 h
  Absorbance, formation of formazan dyes (Means): 0.78
Oral lavage [4]; 1 h
  Absorbance, formation of formazan dyes (Means): 1.33
Oral lavage [4]; 2 h
  Absorbance, formation of formazan dyes (Means): 1.69
Oral lavage [4]; 3 h
  Absorbance, formation of formazan dyes (Means): 1.90
Oral lavage [4]; 4 h
  Absorbance, formation of formazan dyes (Means): 1.87
Oral lavage [4]; 6 h
  Absorbance, formation of formazan dyes (Means): 2.27
Oral lavage [4]; 8 h
  Absorbance, formation of formazan dyes (Means): 2.60
Oral lavage [4]; 10 h
  Absorbance, formation of formazan dyes (Means): 2.89
Oral lavage [4]; 12 h
  Absorbance, formation of formazan dyes (Means): 3.22
Oral lavage [5]; 0 h
  Absorbance, formation of formazan dyes (Means): 0.87
Oral lavage [5]; 1 h
  Absorbance, formation of formazan dyes (Means): 1.50
Oral lavage [5]; 2 h
  Absorbance, formation of formazan dyes (Means): 1.82
Oral lavage [5]; 3 h
  Absorbance, formation of formazan dyes (Means): 2.08
Oral lavage [5]; 4 h
  Absorbance, formation of formazan dyes (Means): 1.94
Oral lavage [5]; 6 h
  Absorbance, formation of formazan dyes (Means): 2.32
Oral lavage [5]; 8 h
  Absorbance, formation of formazan dyes (Means): 2.51
Oral lavage [5]; 10 h
  Absorbance, formation of formazan dyes (Means): 2.66
Oral lavage [5]; 12 h
  Absorbance, formation of formazan dyes (Means): 2.74
